In assay [1] the test system is Prunus dulcis. Kind of assay: (§1) Inhibition of almond beta-glucosidase.
Assay [2] relates to Aspergillus niger. Kind of assay: (§2) Inhibition of Aspergillus niger alpha-galactosidase.
The nature of assay [3]: as §1. More on the design: species or system Prunus dulcis.
The nature of assay [4]: as §2.
Assay [5] has as its system Sinorhizobium meliloti. Kind of assay: Induction of Cac gene-expressing Rhizobium meliloti 41 growth. It counts as functional, organism-based.
Assay [6] has as its system Sinorhizobium meliloti. Kind of assay: Antibacterial activity against Cac gene-deficient Rhizobium meliloti GMI13. It counts as functional, organism-based.
Assay [7] has as its system Sinorhizobium meliloti. The assay is described as follows: Antibacterial activity against Cac gene-deficient Rhizobium meliloti RCR2011. It counts as functional, organism-based.
Assay [8] has as its system Agrobacterium tumefaciens. Kind of assay: Antibacterial activity against Cac gene-deficient Agrobacterium tumefaciens C58C1. It counts as functional, organism-based.
For a further assay, the system named is Agrobacterium rhizogenes. The assay is described as follows: Antibacterial activity against Cac gene-deficient Agrobacterium rhizogenes HRI. It counts as functional, organism-based.
Assay [9] relates to Medicago sativa. The assay is described as follows: Allellopathic effect in Medicago sativa assessed as inhibition of seed germination at 5 mM. It counts as functional.
For assay [10], the system named is Medicago sativa. Kind of assay: Allellopathic effect in Medicago sativa assessed as reduction in root elongation at 5 mM after 19 hrs. It counts as functional. More on the design: scale not given: the % may be the effect or the level left.
Assay [11] concerns Medicago sativa. Kind of assay: Allellopathic effect in Medicago sativa assessed as reduction in root elongation at 10 mM after 19 hrs. It counts as functional. The arrangement: scale not given: the % may be the effect or the level left.
Assay [12] relates to Medicago sativa. The assay is described as follows: Allellopathic effect in Medicago sativa assessed as reduction in root elongation at 5 mM after 43 hrs. It counts as functional. The arrangement: scale not given: the % may be the effect or the level left.
Assay [13] deals with Medicago sativa. The assay is described as follows: Allellopathic effect in Medicago sativa assessed as reduction in root elongation at 10 mM after 43 hrs. It counts as functional. More on the design: scale not given: the % may be the effect or the level left.
Assay [14] has as its system Prunus dulcis. Kind of assay: Inhibition of almond beta-glucosidase at 0.5 mg/mL.
The test system of assay [15] is Aspergillus niger. Kind of assay: Inhibition of Aspergillus niger alpha-galactosidase 1.0 mg/mL.
Assay [16] concerns Medicago sativa. Kind of assay: Allellopathic effect in Medicago sativa assessed as inhibition of seed germination up to 10 mM. It counts as functional, organism-based.

Activity calls are given as the source filed them. The rule behind the calls is not given here.

With `CN1[C@@H]2CC[C@@]1(O)[C@@H](O)[C@H](O)[C@H]2O`, the outcome with Prunus dulcis [1] was inactive. The outcome in the assay with Aspergillus niger [2] was Active.
Turning to `O[C@@H]1[C@@H](O)[C@H](O)[C@]2(O)CC[C@H]1N2` [CALYSTEGINE B2], the Ki in [3] came out at 4 µM; in assay [4], 7 µM. Also, the result in the assay on Sinorhizobium meliloti [5] was Active. Besides, the outcome (in the assay on Sinorhizobium meliloti [6]; in the assay with Sinorhizobium meliloti [7]; in [8]; in the assay on Agrobacterium rhizogenes) was inactive. Also, in the assay with Medicago sativa [9], the inhibition at 5000 µM turned out to be 50%. Further, the Activity stood at 37% in the assay with Medicago sativa [10], 46% with Medicago sativa [11], 12% in the assay on Medicago sativa [12] and 40% in the assay on Medicago sativa [13].
`O[C@H]1[C@H](O)[C@H](O)[C@@]2(O)CC[C@@H]1N2`: the outcome (with Prunus dulcis [14]; in the assay with Aspergillus niger [15]; in the assay with Sinorhizobium meliloti [6]; in the assay on Sinorhizobium meliloti [7]; in assay [8]; in the assay with Agrobacterium rhizogenes) was inactive. For the same compound, the result in the assay with Medicago sativa [16] was inactive. The Activity in the assay on Medicago sativa [10] is on record as 20%; in the assay with Medicago sativa [11] it was 25%; in the assay with Medicago sativa [12] it was 8%; with Medicago sativa [13] it was 18%.

In general, Ki refers to the equilibrium dissociation constant of an inhibitor or competing ligand from its target. The inhibition is the drop in the measured response relative to a control, in per cent.

The record behind these values is ChEMBL document CHEMBL1158284, “Biological activities of the nortropane alkaloid, calystegine B2, and analogs: structure-function relationships” (J Nat Prod, 1996).
